Experimental data: PubChem BioAssay AID1959 (Broad Institute, 2009)
Calls of active or inactive are those of the source.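 The calls were made as follows: active = growth-inhibition EC50 no more than tenfold above the top tested dose; inconclusive = flat fit between 30% and 70% inhibition, or unreliable fit; inactive = EC50 more than tenfold above the top tested dose.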

The compounds below were run on E. coli NEB5alpha growth, BacTiter-Glo luminescence, 4 h (assay: Escherichia coli growth inhibition, dose response, counter-screen for MEX-5/POS-1 RNA-binding inhibitor project, luminescence, NEB5alpha (AID 1959);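 also: pUC19-transformed ampicillin-resistant cells grown in LB with ampicillin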).

Row | SMILES | EC50
1 | CCc1ccc(N2C(=O)NC(=O)/C(=C\c3cc(C)n(-c4cc(C(=O)O)cc(C(=O)O)c4)c3C)C2=O)cc1 | > 11 µM (inactive)
2 | O=C(OCCc1ccccc1)c1cc(O)c(O)c(O)c1 | > 11 µM (inactive)
3 | CCOC(=O)c1ccc(N/C=C2\CCCCC2=O)cc1 | > 11 µM (inactive)
4 | CC(C)(C)OC(=O)NCCCC1=CC2=CC(=O)C(C)(OC(=O)c3ccc(Cl)nc3)C(=O)C2=CO1 (centres undefined) | > 11 µM (inactive)
5 | CC(C)/C=C1\CC/C(=C\c2ccc(N(C)C)cc2)C1=O | > 11 µM (inactive)
6 | Cc1ccc(S(=O)(=O)C(C#N)c2nc3ccccc3nc2N2CCC(C)CC2)cc1 (centres undefined) | > 11 µM (inactive)
7 | COc1ccccc1C(=O)C1CCCN(C(=O)c2cccnc2SC)C1 (centres undefined) | > 11 µM (inactive)
8 | COc1ccc(/C=C/c2cc(C(F)(F)F)[nH]c(=O)n2)cc1OC | > 11 µM (inactive)
9 | CCn1c2ccccc2c(=O)c2ccccc21 | > 11 µM (inactive)
10 | COc1ccc(C2C(C#N)=C(N)OC3=C2C(=O)CC(C)(C)C3)cc1Cn1nc(C)c([N+](=O)[O-])c1C (centres undefined) | > 11 µM (inactive)
11 | COc1ccc(C(=O)/C=C/Nc2ccc([N+](=O)[O-])cc2C)cc1OC | > 11 µM (inactive)
12 | CC1=C[C@@H]2c3cccc4[nH]cc(c34)C[C@H]2N(C)C1 | > 11 µM (inactive)
13 | O=C1C([N+](=O)[O-])=C(O)c2cccc3cccc1c23 | > 11 µM (inactive)
14 | CC[C@H](C)/C=C(C)/C=C/C1=CC2=C(Cl)C(=O)[C@@](C)(OC(C)=O)C(=O)C2=CO1 | > 11 µM (inactive)
15 | COc1cc(C(CCN2CCCC2)c2c(OC)cc(OC)c3c(-c4ccccc4)cc(=O)oc23)cc(OC)c1OC (centres undefined) | > 11 µM (inactive)
16 | CCNC(=O)c1cc2c(=O)n3cccc(C)c3nc2n(CCc2ccccc2)c1=N | > 11 µM (inactive)
17 | Cc1ccc(/C=C2\Oc3c(ccc(O)c3CN3CCN(CCO)CC3)C2=O)cc1 | > 11 µM (inactive)
18 | O=C1c2ccccc2C(=O)c2[nH]c(=O)[nH]c21 | > 11 µM (inactive)
19 | Cc1[nH][nH]c(=O)c1C(c1ccc(-c2cccc(C(=O)O)c2)o1)c1c(C)[nH][nH]c1=O | > 11 µM (inactive)
20 | Cc1cc(C)c(S(=O)(=O)Nc2cc(SCC(=O)O)c(O)c3ccccc23)cc1C | > 11 µM (inactive)
21 | O=c1oc2ccccc2cc1-c1nc(-c2cccs2)cs1 | > 11 µM (inactive)
22 | c1ccc(-c2cn3nc4c(nc3n2)CCCC4)cc1 | > 11 µM (inactive)
23 | CC(=O)c1ccc2c(c1)C1C=CCC1C(c1cc3c(cc1Br)OCO3)N2 (centres undefined) | > 11 µM (inactive)
24 | COc1cc(C2NC(=S)NC(C)=C2C(=O)OC(C)C)ccc1OC(C)C (centres undefined) | > 11 µM (inactive)

Row | SMILES | EC50
25 | COc1ccc(C2C(C#N)=C(/N=C/N3CCN(C)CC3)OC3=C2C(=O)CC(C)(C)C3)cc1 (centres undefined) | > 11 µM (inactive)
26 | CC(C)(C)OC(=O)N1CC=C2C(C#N)=C(N)C(C#N)(C#N)[C@H](c3cccnc3)[C@H]2C1 | > 11 µM (inactive)
27 | Cc1noc(C)c1S(=O)(=O)NC1CCN(Cc2ccccc2)CC1 | > 11 µM (inactive)
28 | Cc1ccc2nc3sc(C(=O)N4CCCc5ccccc54)c(N)c3cc2c1 | > 11 µM (inactive)
29 | O=C(c1ccc(Br)s1)N1CCN(c2ccccn2)CC1 | > 11 µM (inactive)
30 | CCOC(=O)c1cc(=O)n2nc(-c3ccccc3F)nc2s1 | > 11 µM (inactive)
31 | Cc1c(NC(=O)CSc2ccc(Cl)cc2)cccc1-c1nc2cc(Cl)ccc2o1 | > 11 µM (inactive)
32 | COc1ccc(CCC(=O)Nc2cccc(Cl)c2)cc1 | > 11 µM (inactive)
33 | C1=C(c2ccccc2)Nc2nnnn2C1c1cccs1 (centres undefined) | > 11 µM (inactive)
34 | COc1ccc(-c2nnc(Nc3nc4c(OC)cccc4s3)o2)c(OC)c1 | > 11 µM (inactive)
35 | O=c1[nH]c(CSc2ncccn2)nc2c1cnn2-c1ccccc1 | > 11 µM (inactive)
36 | CCCc1c(O)nc(SCC(=O)N2CCCCC2)[nH]c1=O | > 11 µM (inactive)
37 | N#Cc1cc(NC2CCCC2)c([N+](=O)[O-])cc1C#N | > 11 µM (inactive)
38 | CCOC(=O)c1ccc(-n2c(CCC(=O)O)ccc2-c2ccc(F)cc2)cc1 | > 11 µM (inactive)
39 | CCN1CCN(C(=O)c2ccc3c(=O)n(Cc4ccccc4OC)c(=S)[nH]c3c2)CC1 | > 11 µM (inactive)
40 | Cc1ccc(NC(=O)CN2C(=O)S/C(=C\c3cccn3-c3cccc(C(=O)O)c3)C2=O)c(C)c1 | > 11 µM (inactive)
41 | COc1ccc(/C(C)=N/Nc2nc3ccccc3nc2C)cc1OC | > 11 µM (inactive)
42 | CCN(CC)c1ccc(C=C2C(=O)OC(C)(C(C)(C)C)OC2=O)cc1 (centres undefined) | > 11 µM (inactive)
43 | O=C(N/N=C/c1c(O)n(CCc2ccccc2)c(=O)[nH]c1=O)c1ccncc1 | > 11 µM (inactive)
44 | Cc1ccc(CS(=O)Cc2ccc(C(=O)N3CCN(c4ccccc4)CC3)o2)cc1 (centres undefined) | > 11 µM (inactive)
45 | CCCCC1=CC2=C(c3ccco3)C(=O)C(C)(OC(=O)c3ccc(OC)cc3)C(=O)C2=CN1C1CCCC1 (centres undefined) | > 11 µM (inactive)
46 | Cc1cc2c3c(c1)C(C)CC(C)(C)N3C(=O)C2=O (centres undefined) | > 11 µM (inactive)
47 | CCOc1ccc(C2OC34CCCCC3C(C#N)(C#N)C2(C#N)C(=N)O4)cc1OC (centres undefined) | > 11 µM (inactive)
48 | N#Cc1c(C#N)c(-c2ccccc2)n(-c2ccc(C(=O)O)cc2)c1N | > 11 µM (inactive)

Row | SMILES | EC50
49 | O=c1[nH]c(CN2CCc3ccccc3C2)nc2ccccc12 | > 11 µM (inactive)
50 | N#CC(C#N)=Cc1ccc(N2CCOCC2)cc1 | > 11 µM (inactive)
51 | CCN(CC)c1ccc(N=Cc2ccc(N(CC)CC)cc2O)cc1 | > 11 µM (inactive)
52 | Cc1c(C(=O)O)cccc1-n1c(C)cc(/C=C(/C#N)C(=O)NCc2ccccc2)c1C | > 11 µM (inactive)
53 | O=C(NNC(=O)c1cnccn1)c1cccc([N+](=O)[O-])c1 | > 11 µM (inactive)
54 | CC1C2C(C)N(C)C(=O)N(C)C2N(C)C(=O)N1C (centres undefined) | > 11 µM (inactive)
55 | CCCCc1ccc(/C=C2\C(=O)ON=C2c2ccccc2)s1 | > 11 µM (inactive)
56 | CCCCOc1ccc(/C=C2/Sc3ccccc3C2=O)cc1 | > 11 µM (inactive)
57 | Cc1nc(S/C(=C\c2ccc(-c3ccc(C(=O)O)c(Cl)c3)o2)C(=O)O)n[nH]1 | > 11 µM (inactive)
58 | O=C(O)Cn1cc(/C=C2\C(=O)NC(=O)N(c3ccc(F)cc3)C2=O)c2ccccc21 | > 11 µM (inactive)
59 | COC(=O)c1ccc(C23CC4(C2)[C@H](CN(Cc2ccc(C(F)(F)F)cc2)[C@@H]4c2ccccc2)C3c2ccccc2)cc1 (some centres undefined) | > 11 µM (inactive)
60 | CN(C)c1ccc(/C=C(\C#N)C(=O)NCc2ccco2)cc1 | > 11 µM (inactive)
61 | COc1ccccc1Oc1cn[nH]c1-c1ccc(OCC(=O)NN)cc1O | > 11 µM (inactive)
62 | CC(=O)N=c1c(C#N)cc2c(=O)n3cccc(C)c3nc2n1CCCOC(C)C | > 11 µM (inactive)
63 | O=C(O[C@@H]1Cc2c(O)cc(O)cc2O[C@@H]1c1cc(O)c(O)c(O)c1)c1cc(O)c(O)c(O)c1 | > 11 µM (inactive)
64 | Cc1cc(=O)nc2c3ccccc3n(CC(=O)Nc3ccccc3Br)n12 | > 11 µM (inactive)
65 | CCCn1c(O)c(CN2CCCC(C)C2)c(C)c(C#N)c1=O (centres undefined) | > 11 µM (inactive)
66 | O=C(O)C1Nc2ccc(Br)cc2C2C=CCC12 (centres undefined) | > 11 µM (inactive)
67 | COc1ccc(NC(=O)c2sc3nc(-c4cccnc4)ccc3c2N)cc1 | > 11 µM (inactive)
68 | O=C(NCCCN1CCOCC1)C1Nc2ccc(OC(F)(F)F)cc2C2C=CCC12 (centres undefined) | > 11 µM (inactive)
69 | CN1C(=O)c2cccc3c(N)ccc(c23)C1=O | > 11 µM (inactive)
70 | C(#Cc1ccc2c(c1)COc1c3ccccc3nn1-2)c1ccccc1 | > 11 µM (inactive)
71 | CC1(C)CC(=O)C2=C(C1)OC(N)=C(C#N)C2c1ccc2c(c1)OCO2 (centres undefined) | > 5.6 µM (inactive)
72 | O=c1[nH]c(=O)n(-c2ccc(F)cc2)c(O)c1C=Nc1ccccc1N1CCCC1 | > 11 µM (inactive)

Row | SMILES | EC50
73 | Cc1ccccc1N=C1NC(=O)/C(=C/c2cccn2-c2cccc(C(=O)O)c2)S1 | > 11 µM (inactive)
74 | Nc1c(C(=O)Nc2nc3ccccc3s2)sc2nc(-c3cccs3)ccc12 | > 11 µM (inactive)
75 | COc1ccc2nc3ccccc3nc2c1NC(=O)c1ccccc1Cl | > 11 µM (inactive)
76 | CSc1nsc2nc(=O)c(/C=C3\C=Nc4ccccc43)c(N)n12 | > 11 µM (inactive)
77 | CC(=O)c1ccc(-c2ccc(/C=C(/Sc3n[nH]c(C)n3)C(=O)O)o2)cc1 | > 11 µM (inactive)
78 | O=C1c2ccccc2-c2onc3ccc(NCc4ccco4)c1c23 | > 11 µM (inactive)
79 | N/C(=N\N=C/c1ccc(-c2ccc(O)c(C(=O)O)c2)o1)N[N+](=O)[O-] | > 11 µM (inactive)
80 | Cc1ccccc1NC(=O)CN1C(=O)S/C(=C\c2cccn2-c2cccc(C(=O)O)c2)C1=O | > 11 µM (inactive)
81 | CCOC(=O)N1CC=C2C(C#N)=C(N)C(C#N)(C#N)[C@H](c3ccsc3)[C@H]2C1 | > 11 µM (inactive)
82 | CN=c1scc(C)n1/N=C/c1ccc(O)c(O)c1O | > 11 µM (inactive)
83 | C=CCn1c(=O)/c(=C/c2ccc(C)o2)s/c1=C(/C#N)C(=O)c1ccccc1 | > 11 µM (inactive)
84 | COc1ccc(C2C(C(C)=O)=C(C)N=c3s/c(=C\c4cc(C)n(C)c4C)c(=O)n32)c(OC)c1 (centres undefined) | > 11 µM (inactive)
85 | O=C(/C=C/c1ccco1)NC(=S)NNC(=O)c1ccco1 | > 11 µM (inactive)
86 | Cc1ccc(N/C=C2/Sc3ccccc3NC2=O)cc1 | > 11 µM (inactive)
87 | N=c1c(C(=O)NCCN2CCOCC2)cc2c(=O)n3ccccc3nc2n1CCc1ccccc1 | > 11 µM (inactive)
88 | COc1cccc(C2(O)CCN(CC(=O)Nc3nc(C)cs3)CC2)c1 | > 11 µM (inactive)
89 | CC(C)(C)OC(=O)NCCCCC1=CC2=CC(=O)C(C)(OC(=O)c3cnc4ccccc4n3)C(=O)C2=CO1 (centres undefined) | > 11 µM (inactive)
90 | Cc1ccc(-c2ccccc2)n1-c1ccc(C(=O)O)cc1 | > 11 µM (inactive)
91 | CC1(C)CC(=O)C2=C(C1)OC(N)=C(C#N)[C@@]21C(=O)N(CC(N)=O)c2ccccc21 | > 11 µM (inactive)
92 | Cc1cccc(NC(=O)/C(C#N)=C\c2cc(C)n(-c3ccc(C(=O)O)cc3)c2C)c1 | > 11 µM (inactive)
93 | Cc1ccccc1CSCCNC(=S)Nc1ccccc1 | > 11 µM (inactive)
94 | Cn1cc(C2=C(c3ccc(Cl)cc3Cl)C(=O)NC2=O)c2ccccc21 | > 11 µM (inactive)
